{
  "source": "ChEMBL document CHEMBL3526135",
  "about": "“Induction of xenobiotic receptors, transporters, and drug metabolizing enzymes by oxycodone” (Drug Metab Dispos, 2013)",
  "type_in_all_cases": "ADME, organism-based",
  "design_in_all_cases": "dose 15 mg/kg, route intraperitoneal",
  "key": {"Rattus norvegicus [1]": {"test_system": "Rattus norvegicus", "test": "Effect on Slc38a4 mRNA expression in Sprague-Dawley rat liver at 15 mg/kg, ip administered twice daily every 12 hrs for 8 days by qRT-PCR analysis relative to control", "conditions": "in vivo; call rule not given here"}, "CYP17a1": {"test_system": "CYP17a1", "test": "Effect on CYP17a1 mRNA expression in Sprague-Dawley rat liver at 15 mg/kg, ip administered twice daily every 12 hrs for 8 days by microarray analysis relative to control", "conditions": "read-out: FC"}, "Yc2/Gsta5": {"test_system": "Yc2/Gsta5", "test": "Effect on Yc2/Gsta5 mRNA expression in Sprague-Dawley rat liver at 15 mg/kg, ip administered twice daily every 12 hrs for 8 days by microarray analysis relative to control", "conditions": "read-out: FC"}, "CYP3A1": {"test_system": "CYP3A1", "test": "Upregulation of CYP3A1 protein expression in Sprague-Dawley rat liver microsomes at 15 mg/kg, ip administered twice daily every 12 hrs for 8 days by Western blot analysis relative to control", "conditions": "read-out: FC"}, "NR1I2": {"test_system": "NR1I2", "test": "Effect on NR1I2 mRNA expression in Sprague-Dawley rat liver at 15 mg/kg, ip administered twice daily every 12 hrs for 8 days by microarray analysis relative to control", "conditions": "read-out: FC"}, "Rattus norvegicus [2]": {"test_system": "Rattus norvegicus", "test": "Effect on Abcb1a mRNA expression in Sprague-Dawley rat liver at 15 mg/kg, ip administered twice daily every 12 hrs for 8 days by qRT-PCR analysis relative to control", "conditions": "in vivo"}, "Abcg5": {"test_system": "Abcg5", "test": "Effect on Abcg5 mRNA expression in Sprague-Dawley rat liver at 15 mg/kg, ip administered twice daily every 12 hrs for 8 days by microarray analysis relative to control", "conditions": "read-out: FC"}, "CYP4b1": {"test_system": "CYP4b1", "test": "Effect on CYP4b1 mRNA expression in Sprague-Dawley rat liver at 15 mg/kg, ip administered twice daily every 12 hrs for 8 days by microarray analysis relative to control", "conditions": "read-out: FC"}, "Rattus norvegicus [3]": {"test_system": "Rattus norvegicus", "test": "Effect on Slc15a3 mRNA expression in Sprague-Dawley rat liver at 15 mg/kg, ip administered twice daily every 12 hrs for 8 days by qRT-PCR analysis relative to control", "conditions": "in vivo"}, "Rattus norvegicus [4]": {"test_system": "Rattus norvegicus", "test": "Effect on CYP2c13 mRNA expression in Sprague-Dawley rat liver at 15 mg/kg, ip administered twice daily every 12 hrs for 8 days by qRT-PCR analysis relative to control", "conditions": "in vivo"}, "Slc2a2": {"test_system": "Slc2a2", "test": "Effect on Slc2a2 mRNA expression in Sprague-Dawley rat liver at 15 mg/kg, ip administered twice daily every 12 hrs for 8 days by microarray analysis relative to control", "conditions": "read-out: FC"}, "Slc39a4": {"test_system": "Slc39a4", "test": "Effect on Slc39a4 mRNA expression in Sprague-Dawley rat liver at 15 mg/kg, ip administered twice daily every 12 hrs for 8 days by microarray analysis relative to control", "conditions": "read-out: FC"}, "CYP2e1": {"test_system": "CYP2e1", "test": "Effect on CYP2e1 mRNA expression in Sprague-Dawley rat liver at 15 mg/kg, ip administered twice daily every 12 hrs for 8 days by microarray analysis relative to control", "conditions": "read-out: FC"}, "Rattus norvegicus [5]": {"test_system": "Rattus norvegicus", "test": "Effect on CYP3a1 mRNA expression in Sprague-Dawley rat liver at 15 mg/kg, ip administered twice daily every 12 hrs for 8 days by qRT-PCR analysis relative to control", "conditions": "in vivo"}, "Rattus norvegicus [6]": {"test_system": "Rattus norvegicus", "test": "Effect on CYP17a1 mRNA expression in Sprague-Dawley rat liver at 15 mg/kg, ip administered twice daily every 12 hrs for 8 days by qRT-PCR analysis relative to control", "conditions": "in vivo"}, "CYP2j4": {"test_system": "CYP2j4", "test": "Effect on CYP2j4 mRNA expression in Sprague-Dawley rat liver at 15 mg/kg, ip administered twice daily every 12 hrs for 8 days by microarray analysis relative to control", "conditions": "read-out: FC"}, "Rattus norvegicus [7]": {"test_system": "Rattus norvegicus", "test": "Effect on Slco1a4 mRNA expression in Sprague-Dawley rat liver at 15 mg/kg, ip administered twice daily every 12 hrs for 8 days by qRT-PCR analysis relative to control", "conditions": "in vivo"}, "Rattus norvegicus [8]": {"test_system": "Rattus norvegicus", "test": "Effect on PXR mRNA expression in Sprague-Dawley rat liver at 15 mg/kg, ip administered twice daily every 12 hrs for 8 days by qRT-PCR analysis relative to control", "conditions": "in vivo"}, "Rattus norvegicus [9]": {"test_system": "Rattus norvegicus", "test": "Effect on GAPDH mRNA expression in Sprague-Dawley rat liver at 15 mg/kg, ip administered twice daily every 12 hrs for 8 days by qRT-PCR analysis relative to control", "conditions": "in vivo"}, "ABCB1": {"test_system": "ABCB1", "test": "Upregulation of ABCB1 protein expression in Sprague-Dawley rat liver microsomes at 15 mg/kg, ip administered twice daily every 12 hrs for 8 days by Western blot analysis relative to control", "conditions": "read-out: FC"}, "Rattus norvegicus [10]": {"test_system": "Rattus norvegicus", "test": "Effect on Fkbp5 mRNA expression in Sprague-Dawley rat liver at 15 mg/kg, ip administered twice daily every 12 hrs for 8 days by qRT-PCR analysis relative to control", "conditions": "in vivo"}, "AhR": {"test_system": "AhR", "test": "Effect on AhR mRNA expression in Sprague-Dawley rat liver at 15 mg/kg, ip administered twice daily every 12 hrs for 8 days by microarray analysis relative to control", "conditions": "read-out: FC"}, "NR1I3": {"test_system": "NR1I3", "test": "Effect on NR1I3 mRNA expression in Sprague-Dawley rat liver at 15 mg/kg, ip administered twice daily every 12 hrs for 8 days by microarray analysis relative to control", "conditions": "read-out: FC"}, "Slc21a10": {"test_system": "Slc21a10", "test": "Effect on Slc21a10 mRNA expression in Sprague-Dawley rat liver at 15 mg/kg, ip administered twice daily every 12 hrs for 8 days by microarray analysis relative to control", "conditions": "read-out: FC"}, "FMO1": {"test_system": "FMO1", "test": "Effect on FMO1 mRNA expression in Sprague-Dawley rat liver at 15 mg/kg, ip administered twice daily every 12 hrs for 8 days by microarray analysis relative to control", "conditions": "read-out: FC"}, "Por": {"test_system": "Por", "test": "Effect on Por mRNA expression in Sprague-Dawley rat liver at 15 mg/kg, ip administered twice daily every 12 hrs for 8 days by microarray analysis relative to control", "conditions": "read-out: FC"}, "Slc38a4": {"test_system": "Slc38a4", "test": "Effect on Slc38a4 mRNA expression in Sprague-Dawley rat liver at 15 mg/kg, ip administered twice daily every 12 hrs for 8 days by microarray analysis relative to control", "conditions": "read-out: FC"}, "Abcb1a": {"test_system": "Abcb1a", "test": "Effect on Abcb1a mRNA expression in Sprague-Dawley rat liver at 15 mg/kg, ip administered twice daily every 12 hrs for 8 days by microarray analysis relative to control", "conditions": "read-out: FC"}, "CYP27a1": {"test_system": "CYP27a1", "test": "Effect on CYP27a1 mRNA expression in Sprague-Dawley rat liver at 15 mg/kg, ip administered twice daily every 12 hrs for 8 days by microarray analysis relative to control", "conditions": "read-out: FC"}, "CYP2a1": {"test_system": "CYP2a1", "test": "Effect on CYP2a1 mRNA expression in Sprague-Dawley rat liver at 15 mg/kg, ip administered twice daily every 12 hrs for 8 days by microarray analysis relative to control", "conditions": "read-out: FC"}, "Rattus norvegicus [11]": {"test_system": "Rattus norvegicus", "test": "Effect on CYP2b2 mRNA expression in Sprague-Dawley rat liver at 15 mg/kg, ip administered twice daily every 12 hrs for 8 days by qRT-PCR analysis relative to control", "conditions": "in vivo"}, "CYP4a10": {"test_system": "CYP4a10", "test": "Effect on CYP4a10 mRNA expression in Sprague-Dawley rat liver at 15 mg/kg, ip administered twice daily every 12 hrs for 8 days by microarray analysis relative to control", "conditions": "read-out: FC"}, "Rattus norvegicus [12]": {"test_system": "Rattus norvegicus", "test": "Effect on CYP2d1 mRNA expression in Sprague-Dawley rat liver at 15 mg/kg, ip administered twice daily every 12 hrs for 8 days by qRT-PCR analysis relative to control", "conditions": "in vivo"}},
  "data": [
    {"smiles": "COc1ccc2c3c1O[C@H]1C(=O)CC[C@@]4(O)[C@@H](C2)N(C)CC[C@]314.Cl", "note": "[OXYCODONE HYDROCHLORIDE]", "values": [
      {"measurement": "Activity", "setting": "Rattus norvegicus [1]", "value": "Active"},
      {"measurement": "fold induction at 8 days", "setting": "CYP17a1", "value": 17.1},
      {"measurement": "fold induction at 8 days", "setting": "Yc2/Gsta5", "value": 7},
      {"measurement": "fold induction at 8 days", "setting": "CYP3A1", "value": 12.2},
      {"measurement": "fold induction at 8 days", "setting": "NR1I2", "value": 2.9},
      {"measurement": "Activity", "setting": "Rattus norvegicus [2]", "value": "Active"},
      {"measurement": "fold induction at 8 days", "setting": "Abcg5", "value": 3.6},
      {"measurement": "fold induction at 8 days", "setting": "CYP4b1", "value": 1.9},
      {"measurement": "Activity", "setting": "Rattus norvegicus [3]", "value": "Active"},
      {"measurement": "Activity", "setting": "Rattus norvegicus [4]", "value": "Active"},
      {"measurement": "fold induction at 8 days", "setting": "Slc2a2", "value": 1.5},
      {"measurement": "fold induction at 8 days", "setting": "Slc39a4", "value": 1.6},
      {"measurement": "fold induction at 8 days", "setting": "CYP2e1", "value": 1.5},
      {"measurement": "Activity", "setting": "Rattus norvegicus [5]", "value": "Active"},
      {"measurement": "Activity", "setting": "Rattus norvegicus [6]", "value": "Active"},
      {"measurement": "fold induction at 8 days", "setting": "CYP2j4", "value": 2.4},
      {"measurement": "Activity", "setting": "Rattus norvegicus [7]", "value": "Active"},
      {"measurement": "Activity", "setting": "Rattus norvegicus [8]", "value": "Active"},
      {"measurement": "Activity", "setting": "Rattus norvegicus [9]", "value": "Active"},
      {"measurement": "fold induction at 8 days", "setting": "ABCB1", "value": 3},
      {"measurement": "Activity", "setting": "Rattus norvegicus [10]", "value": "Active"},
      {"measurement": "fold induction at 8 days", "setting": "AhR", "value": 2.3},
      {"measurement": "fold induction at 8 days", "setting": "NR1I3", "value": 6.1},
      {"measurement": "fold induction at 8 days", "setting": "Slc21a10", "value": 1.5},
      {"measurement": "fold induction at 8 days", "setting": "FMO1", "value": 3.7},
      {"measurement": "fold induction at 8 days", "setting": "Por", "value": 7},
      {"measurement": "fold induction at 8 days", "setting": "Slc38a4", "value": 1.8},
      {"measurement": "fold induction at 8 days", "setting": "Abcb1a", "value": 2.8},
      {"measurement": "fold induction at 8 days", "setting": "CYP27a1", "value": 1.9},
      {"measurement": "fold induction at 8 days", "setting": "CYP2a1", "value": 1.7},
      {"measurement": "Activity", "setting": "Rattus norvegicus [11]", "value": "Active"},
      {"measurement": "fold induction at 8 days", "setting": "CYP4a10", "value": 2},
      {"measurement": "Activity", "setting": "Rattus norvegicus [12]", "value": "Active"}
    ]}
  ]
}
